The source of these data is patent US10980787B2, “Drug for treating or preventing disorder caused by TGF-B signals, and application thereof” (THE DOSHISHA, priority 2015, dated 2021).

Data set [1] concerns immobilized human corneal endothelial cells (iFECD). In words: Mitochondrial membrane potential, JC-1 stain, confocal microscope. Format: cell-based. Particulars: CCCP 50 μmol/L, 9 hours, uncoupling agent. Here is the method: (§1) The medium was removed from a culture dish in which immobilized human corneal endothelial cells were being cultured, and the cells were supplemented with 1×PBS (−) that was preheated to 37° C., and were washed. This was repeated twice. The cells were supplemented again with 1×PBS (−) and incubated for 5 minutes at 37° C. (5% CO2). After removing the PBS (−), the cells were supplemented with 0.05% Trypsin-EDTA (Nacalai Tesque, 35554-64) and incubated for 5 minutes at 37° C. (5% CO2). The cells were then suspended in a medium, and collected by centrifugation at 1500 rpm for 3 minutes. DMEM (Nacalai Tesque, 08456-94)+10% FBS (Biowest, S1820-500)+1% P/S (Nacalai Tesque, 26252-94) was used as the medium.
Immobilized human corneal endothelial cells (lot: iFECD3-5) were seeded on a 48-well plate at a ratio of 4×10^4 cells per well and cultured for 48 hours at 37° C. (5% CO2). DMEM+10% FBS+1% P/S was used as the medium.
After 48 hours, the medium was removed. Each inhibitor was added to culture the cells for 24 hours (pretreatment). DMSO (Dimethyl Sulfoxide Sterile-filtered) (Nacalai Tesque, 13408-64) was added to the control group and the TGF-β2 group. The CCCP group was supplemented with CCCP (abcam, ab141229), so that the final concentration was 50 μmol/L, and cultured for 9 hours. […]
Mitochondrial membrane potential was analyzed by the following procedure with a JC-1 stain. […]

Data set [2] shares this test system. Put plainly: Mitochondrial membrane potential decreased cells, JC-1 flow cytometry. It is filed as cell-based. Particulars: TGF-β2 10 ng/ml 30 hours, SB203580 10 μM, PH-797804 1 μM, VX-702 3 μM, compared to the TGF-β2 group or SB431542 10 μM group. Here is the method: as §1, with “C. (5% C02). After removing” for “C. (5% CO2). After removing”
(§2) Immobilized human corneal endothelial cells (lot: iFECD3-5) were seeded on a 12-well plate at a ratio of 8×10^4 cells per well and cultured for 48 hours at 37° C. (5% CO2). DMEM+10% FBS+1% P/S was used as the medium.
After 48 hours, the medium was removed. Each inhibitor was added to culture the cells for 24 hours (pretreatment). DMSO (Dimethyl Sulfoxide Sterile-filtered) (Nacalai Tesque, 13408-64) was added to the control group and the TGF-β2 group. DMEM+2% FBS+1% P/S was used as the medium. […]
The samples prepared above were analyzed using BD Accuri C6 Flow Cytometer (BD).

Data set [3] deals with Human corneal endothelial cells. In words: Cryopreservation of corneal endothelial cells, trypan blue dye exclusion test. It is filed as cell-based. Particulars: SB203580 10 μM in KM BANKER, 3 days at −80° C. Here is the method: Human corneal endothelial cells cultured in an MSC-CM (MSC cultured medium) were used in the test. The medium was removed from a culture dish in which human corneal endothelial cells were being cultured, and the cells were supplemented with PBS (−) that was preheated to 37° C., and were washed. This was repeated twice. After removing the PBS (−), the cells were supplemented with TrypLE Select (×10) (GIBCO, A12177-01) and incubated for 10 minutes at 37° C. (5% CO2). SB203580 was added to KM BANKER, so that the final concentration was 10 μM. The control group was cryopreserved by supplementing a reagent solvent, dimethyl sulfoxide (DMSO) (Dimethyl Sulfoxide Sterile-filtered; Nacalai Tesque, 13408-64). After 3 days of storage at −80° C., the tube was thawed by being immersed in a 37° C. water bath. After thawing, the sample was washed in a medium. Live and dead cell counts were measured by trypan blue dye exclusion test.

For data set [4] the following is noted: cited from earlier work.
Data set [5] has as its system Human corneal endothelial cells. Put plainly: Cell count 24 hours after thawing cryopreserved cells, CellTiter-Glo. Particulars: SB203580 10 μM, 24 hours after seeding thawed cells. Format: cell-based. As to the method:
After thawing the cryopreserved cells by adding only DMSO, 10000 cells were seeded in a 96-well plate that was coated with laminin E8. SB203580 (Cayman, catalog number: 13067) was added so that the final concentration was 10 μM upon seeding. DMSO was added to the group to which SB203580 was not added. After 24 hours from seeding, CellTiter-Glo Luminescent Cell Viability Assay (Promega catalog number: G7570) was performed to measure luminescence.
(ATP-based viability assays read luminescence as a measure of living cells.)

For data set [6], the system named is immobilized human corneal endothelial cells (iFECD). Put plainly: Cell damage by TGF-β2 stimulation, phase differential microscope. Format: cell-based. The conditions noted are these: 24 h pretreatment, TGF-β2 10 ng/ml 27 hours, SB203580 10 μM, PH-797804 1 μM, VX-702 3 μM, SB431542 10 μM. As to the method:
as §1, with “P/S (penicillin-streptomycin mixture)” for “P/S”
as §2
After 48 hours, the medium was removed. Each inhibitor was added to culture the cells for 24 hours. DMSO (Dimethyl Sulfoxide Sterile-filtered) (Nacalai Tesque, 13408-64) was added to the control group and the TGF-52 group. DMEM+2% FBS+1% P/S was used as the medium.
After 24 hours, the medium was removed. A medium containing 10 ng/ml of Recombinant Human TGF-β2 (R&D systems, RND302-B2-002) and each inhibitor was added to culture the cells for 27 hours. […]

For a further data set, the system named is smad2 and smad3. Put plainly: Western blot of phospho-smad2 and smad3 after TGF-β2 stimulation. Format: cell-based, human. Particulars: iFECD, TGF-β2 10 ng/ml 24 hours; SB431542 10 μM, SB203580 10 μM, PH-797804 1 μM, VX-702 3 μM. An excerpt:
The same procedure as Example 4 was used. However, rabbit anti-Phospho-Smad2 antibody: 1000-fold dilution, rabbit anti-Phospho-Smad3 antibody: 1000-fold dilution, and mouse anti-GAPDH antibody: 3000-fold dilution were used as the primary antibodies.
(A western blot detects proteins with antibodies after separation by electrophoresis.)

With `N#CC(C#N)=NNc1cccc(Cl)c1` [CCCP], the “mitochondrial membrane potential (JC-1 red fluorescence)” value in data set [1] is listed as “not observed”.

Regarding `CNC(=O)c1ccc(C)c(-n2c(C)cc(OCc3ccc(F)cc3F)c(Br)c2=O)c1` [PH-797804, 3-[3-bromo-4-[(2,4-difluorophenyl)methoxy]-6-methyl-2-oxopyridin-1-yl]-N,4-dimethylbenzamide], the “percentage of mitochondrial membrane potential decreased cells” value in data set [2] is recorded as “comparable to or lower than the SB431542 added group”.

With `C[S+]([O-])c1ccc(-c2nc(-c3ccncc3)c(-c3ccc(F)cc3)[nH]2)cc1` (stereo not drawn) [SB203580, 4-(4-fluorophenyl)-2-(4-methylsulfinylphenyl)-5-(4-pyridyl)-1H-imidazole], the “percentage of mitochondrial membrane potential decreased cells” value in data set [2] is recorded as “comparable to or lower than the SB431542 added group”. Further, the “cell viability immediately after thawing compared to DMSO” value in data set [3] is “slightly higher”. The solubility into methanol result in data set [4] (methanol) is listed as “soluble”. For the same molecule, the solubility into water entry in data set [4] (water) is reported as “difficult to dissolve”. Besides, the “cell count compared to the DMSO-added group” value in data set [5] is given as “about 1.3 fold”.

Consider `NC(=O)c1ccc(-c2nc(-c3ccc4c(c3)OCO4)c(-c3ccccn3)[nH]2)cc1` [SB431542], for which the “damage to corneal endothelial cells due to TGF-β2 stimulation” value in data set [6] is “suppressed”. In addition, in the data set on smad2 and smad3, the “smad2 and smad3 (downstream of TGF-β signaling pathway) in western blot” value was “not found”.
